In patent publication US10342795B2, “Substituted 4,5,6,7-tetrahydro-pyrazolo[1,5-a]pyrimidine derivatives and 2,3-dihydro-1H-imidazo[1,2-b]pyrazole derivatives as ROS1 inhibitors” (Janssen Pharmaceutica NV, priority 2014, dated 2019):

Legend:
[1] = molecular target: T1, Ros1 enzyme (Homo sapiens, UniProt P08922); assay: Ros1 enzymatic assay; type: biochemical; conditions: -log IC50 (M); 20 μM ATP, 120 min at room temperature; read-out: ROS1 pIC50 (converted)
T1 construct: 0.5 μg/ml Ros1 enzyme
Protocol: Compounds were spotted onto white 384-well Proxiplate plus plates (Perkin Elmer) to which 5 μl of enzyme mix (0.5 μg/ml Ros1 enzyme, 50 mM Tris-HCl pH7.5, 1 mM EGTA, 10 mM MgCl2, 0.01% Tween-20) and 5 μl of substrate mix (6 μg/ml IRS-Tide [American Peptide Company], 20 μM ATP, 13.33 μCi/ml ATP (adenosine 5′-triphosphate) P^33, 50 mM Tris-HCl pH7.5, 1 mM EGTA (ethylene glycol-bis(2-aminoethylether)-N,N,N′,N′-tetraacetic acid), 10 mM MgCl2, 0.01% Tween-20) were added. After incubation for 120 minutes at room temperature, 10 μl of stop reaction buffer (5 mM EDTA, 50 μM ATP, 0.1% BSA (bovine serum albumin), 0.1% Triton X-100, 50 mM Tris-HCl pH7.5, 1 mM EGTA, 10 mM MgCl2, 0.01% Tween-20) containing 2 mg/ml streptavidin coupled polystyrene imaging beads (Amersham Biosciences) was added and incubated for 15 minutes at room temperature. Plates were centrifuged for 3 minutes at 1500 rpm and signals detected in a LEADseeker imaging system (GE).

[2] = molecular target: Ba/F3 cells containing Ros1 L2026M (Homo sapiens, UniProt P08922, L2026M, cells depend on it, form not given); assay: Ba/F3-Ros1 cell proliferation assay, L2026M gatekeeper mutant; type: cell-based, murine; conditions: -log IC50 (M), no IL-3
Protocol: (§1) This assay was carried out with Ba/F3 cells containing three different versions of Ros1: the wild-type protein, protein with a mutation at the gatekeeper residue (L2026M), and protein with a mutation identified in a tumor from a patient that became resistant to crizotinib (Xalkori®) treatment (G2032R). Compounds were solubilized in 100% DMSO (dimethyl sulfoxide) and sprayed into polystyrene, tissue culture treated 384-well plates. A 50 μl volume of cell culture medium (phenol red free RPMI-1640, 10% FBS (fetal bovine serum), 2 mM L-Glutamine) containing 20000 Ba/F3-Ros1 cells was added to each well and the plates were placed in an incubator at 37° C. and 5% CO2. After 24 hours, 10 μl of Alamar Blue solution (0.5 mM K3Fe(CN)6, 0.5 mM K4Fe(CN)6, 0.15 mM Resazurin and 100 mM Phosphate Buffer) was added to the wells, incubated for 4 hours at 37° C. and 5% CO2 before RFU's (Relative Fluorescence Units) (ex. 540 nm., em. 590 nm.) were measured in a fluorescence plate reader.

[3] = molecular target: Ba/F3 cells containing Ros1 wild-type protein (Homo sapiens, UniProt P08922, cells depend on it, form not given); assay: Ba/F3-Ros1 cell proliferation assay, wild-type Ros1, without IL-3; type: cell-based, murine; conditions: -log IC50 (M); wild-type Ros1, no IL-3, 24 h, Alamar Blue
Protocol: as §1

[4] = tested on: HCC78 non-small cell lung cancer cells; assay: HCC78 cell proliferation assay; type: cell-based; conditions: Homo sapiens, HCC78, 96 h; -log EC50 (M); 4 days, MTT; read-out: HCC-78 PROL pEC50 (converted)
Protocol: Approximately 1000 HCC78 non-small cell lung cancer cells in 180 μl of cell culture medium (RPMI-1640, 10% FBS, 2 mM L-Glutamine, 10 mM Hepes, 1 mM sodium pyruvate, 4.5 g/L glucose, 1.5 g/L sodium bicarbonate, 25 μg/ml Gentamycin) were seeded in each well of a 96-well polystyrene, tissue-culture treated plate and incubated at 37° C. and 5% CO2. After 24 hours, compounds were diluted in cell culture medium from which 20 μl was added to the wells containing cells and incubated for 4 days at 37° C. and 5% CO2. A 5 mg/ml solution of the tetrazolium dye MTT was prepared in PBS (phosphate-buffered saline) and 25 μl was added to each well. After 2 hours the medium was removed and replaced by 125 μL of 4/1 DMSO/glycine buffer (0.1M glycine, 0.1M NaCl, pH 10.5) before absorbance was determined at 538 nm.

[5] = tested on: Ba/F3 cells containing Ros1 wild-type protein + IL-3; assay: Ba/F3-Ros1 cell proliferation counter-screen, wild-type Ros1 in the presence of murine IL-3; type: cell-based; conditions: Mus musculus, BaF3, 24 h; -log IC50 (M); wild-type Ros1, 10 ng/ml murine IL-3 (counter-screen); read-out: BaF3-ROS1 + IL3 pIC50 (converted)
Protocol: as §1
As a counter-screen the same experiment was performed for the wild-type protein in the presence of 10 ng/ml murine IL-3.

Sequence of Ba/F3 cells containing Ros1 L2026M (P08922 whole entry L2026M, form open): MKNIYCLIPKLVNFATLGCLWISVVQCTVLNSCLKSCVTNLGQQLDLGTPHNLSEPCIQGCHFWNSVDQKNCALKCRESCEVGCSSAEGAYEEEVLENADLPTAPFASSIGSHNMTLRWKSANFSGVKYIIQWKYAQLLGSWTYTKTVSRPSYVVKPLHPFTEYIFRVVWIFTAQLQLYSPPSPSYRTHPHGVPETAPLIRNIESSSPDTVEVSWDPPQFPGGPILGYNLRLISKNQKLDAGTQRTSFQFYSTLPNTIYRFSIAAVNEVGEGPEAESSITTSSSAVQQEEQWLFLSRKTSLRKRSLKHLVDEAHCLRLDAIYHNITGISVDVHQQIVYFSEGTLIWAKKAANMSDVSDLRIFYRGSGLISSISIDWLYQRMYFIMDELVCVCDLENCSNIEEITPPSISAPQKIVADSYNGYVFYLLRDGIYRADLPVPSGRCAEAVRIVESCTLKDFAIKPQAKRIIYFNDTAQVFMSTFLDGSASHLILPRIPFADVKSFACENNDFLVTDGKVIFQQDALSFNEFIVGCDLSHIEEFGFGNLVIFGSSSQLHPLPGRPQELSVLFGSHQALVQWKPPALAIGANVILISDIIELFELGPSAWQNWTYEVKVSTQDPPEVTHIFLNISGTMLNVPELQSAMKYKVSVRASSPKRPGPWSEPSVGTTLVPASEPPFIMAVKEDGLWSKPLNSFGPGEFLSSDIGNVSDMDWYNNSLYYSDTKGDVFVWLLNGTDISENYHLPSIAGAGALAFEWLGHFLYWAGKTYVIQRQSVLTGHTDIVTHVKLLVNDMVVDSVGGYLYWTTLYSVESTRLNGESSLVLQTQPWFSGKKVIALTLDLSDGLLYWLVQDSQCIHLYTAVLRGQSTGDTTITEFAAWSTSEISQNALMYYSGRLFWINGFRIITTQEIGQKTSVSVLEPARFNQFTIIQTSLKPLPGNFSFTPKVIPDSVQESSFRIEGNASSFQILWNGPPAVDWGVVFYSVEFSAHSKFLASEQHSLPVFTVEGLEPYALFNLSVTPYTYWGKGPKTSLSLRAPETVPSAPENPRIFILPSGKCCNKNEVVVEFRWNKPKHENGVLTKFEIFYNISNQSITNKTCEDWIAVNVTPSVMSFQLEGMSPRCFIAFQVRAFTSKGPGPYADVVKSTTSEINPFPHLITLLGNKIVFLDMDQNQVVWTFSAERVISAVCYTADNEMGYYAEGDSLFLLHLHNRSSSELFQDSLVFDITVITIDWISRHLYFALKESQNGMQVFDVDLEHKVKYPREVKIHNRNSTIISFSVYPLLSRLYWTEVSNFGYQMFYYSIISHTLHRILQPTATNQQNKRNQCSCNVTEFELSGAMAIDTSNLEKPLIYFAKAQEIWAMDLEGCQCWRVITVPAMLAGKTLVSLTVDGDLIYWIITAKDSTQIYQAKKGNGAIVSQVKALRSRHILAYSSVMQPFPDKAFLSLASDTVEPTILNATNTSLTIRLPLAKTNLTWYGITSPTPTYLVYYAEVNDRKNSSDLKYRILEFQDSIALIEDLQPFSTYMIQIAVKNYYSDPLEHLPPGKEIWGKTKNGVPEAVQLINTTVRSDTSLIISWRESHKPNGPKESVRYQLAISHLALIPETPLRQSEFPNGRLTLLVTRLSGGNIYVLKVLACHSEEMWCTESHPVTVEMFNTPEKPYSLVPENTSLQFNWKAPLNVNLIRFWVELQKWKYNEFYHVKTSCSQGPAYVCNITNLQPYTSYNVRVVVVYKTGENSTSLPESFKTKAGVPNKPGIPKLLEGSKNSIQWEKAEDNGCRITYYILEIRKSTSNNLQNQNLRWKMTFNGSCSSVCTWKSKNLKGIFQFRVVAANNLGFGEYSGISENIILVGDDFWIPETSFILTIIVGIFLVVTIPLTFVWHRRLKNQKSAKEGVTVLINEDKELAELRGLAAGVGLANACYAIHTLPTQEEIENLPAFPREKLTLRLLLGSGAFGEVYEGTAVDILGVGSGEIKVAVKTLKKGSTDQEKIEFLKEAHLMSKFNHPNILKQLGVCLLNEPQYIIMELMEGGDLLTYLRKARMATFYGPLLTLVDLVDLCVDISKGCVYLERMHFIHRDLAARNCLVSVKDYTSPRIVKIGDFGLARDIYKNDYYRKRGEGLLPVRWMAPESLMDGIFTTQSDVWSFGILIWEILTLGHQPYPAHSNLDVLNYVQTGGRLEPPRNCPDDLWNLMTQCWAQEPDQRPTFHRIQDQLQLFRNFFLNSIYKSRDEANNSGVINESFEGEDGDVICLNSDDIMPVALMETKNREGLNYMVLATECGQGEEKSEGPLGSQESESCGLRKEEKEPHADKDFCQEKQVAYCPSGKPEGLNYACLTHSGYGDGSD
Sequence of Ba/F3 cells containing Ros1 wild-type protein (P08922 whole entry, change not shown): as the sequence (P08922 whole entry L2026M, form open) above, with M2026L counted along it
T1 sequence (P08922 28-2347): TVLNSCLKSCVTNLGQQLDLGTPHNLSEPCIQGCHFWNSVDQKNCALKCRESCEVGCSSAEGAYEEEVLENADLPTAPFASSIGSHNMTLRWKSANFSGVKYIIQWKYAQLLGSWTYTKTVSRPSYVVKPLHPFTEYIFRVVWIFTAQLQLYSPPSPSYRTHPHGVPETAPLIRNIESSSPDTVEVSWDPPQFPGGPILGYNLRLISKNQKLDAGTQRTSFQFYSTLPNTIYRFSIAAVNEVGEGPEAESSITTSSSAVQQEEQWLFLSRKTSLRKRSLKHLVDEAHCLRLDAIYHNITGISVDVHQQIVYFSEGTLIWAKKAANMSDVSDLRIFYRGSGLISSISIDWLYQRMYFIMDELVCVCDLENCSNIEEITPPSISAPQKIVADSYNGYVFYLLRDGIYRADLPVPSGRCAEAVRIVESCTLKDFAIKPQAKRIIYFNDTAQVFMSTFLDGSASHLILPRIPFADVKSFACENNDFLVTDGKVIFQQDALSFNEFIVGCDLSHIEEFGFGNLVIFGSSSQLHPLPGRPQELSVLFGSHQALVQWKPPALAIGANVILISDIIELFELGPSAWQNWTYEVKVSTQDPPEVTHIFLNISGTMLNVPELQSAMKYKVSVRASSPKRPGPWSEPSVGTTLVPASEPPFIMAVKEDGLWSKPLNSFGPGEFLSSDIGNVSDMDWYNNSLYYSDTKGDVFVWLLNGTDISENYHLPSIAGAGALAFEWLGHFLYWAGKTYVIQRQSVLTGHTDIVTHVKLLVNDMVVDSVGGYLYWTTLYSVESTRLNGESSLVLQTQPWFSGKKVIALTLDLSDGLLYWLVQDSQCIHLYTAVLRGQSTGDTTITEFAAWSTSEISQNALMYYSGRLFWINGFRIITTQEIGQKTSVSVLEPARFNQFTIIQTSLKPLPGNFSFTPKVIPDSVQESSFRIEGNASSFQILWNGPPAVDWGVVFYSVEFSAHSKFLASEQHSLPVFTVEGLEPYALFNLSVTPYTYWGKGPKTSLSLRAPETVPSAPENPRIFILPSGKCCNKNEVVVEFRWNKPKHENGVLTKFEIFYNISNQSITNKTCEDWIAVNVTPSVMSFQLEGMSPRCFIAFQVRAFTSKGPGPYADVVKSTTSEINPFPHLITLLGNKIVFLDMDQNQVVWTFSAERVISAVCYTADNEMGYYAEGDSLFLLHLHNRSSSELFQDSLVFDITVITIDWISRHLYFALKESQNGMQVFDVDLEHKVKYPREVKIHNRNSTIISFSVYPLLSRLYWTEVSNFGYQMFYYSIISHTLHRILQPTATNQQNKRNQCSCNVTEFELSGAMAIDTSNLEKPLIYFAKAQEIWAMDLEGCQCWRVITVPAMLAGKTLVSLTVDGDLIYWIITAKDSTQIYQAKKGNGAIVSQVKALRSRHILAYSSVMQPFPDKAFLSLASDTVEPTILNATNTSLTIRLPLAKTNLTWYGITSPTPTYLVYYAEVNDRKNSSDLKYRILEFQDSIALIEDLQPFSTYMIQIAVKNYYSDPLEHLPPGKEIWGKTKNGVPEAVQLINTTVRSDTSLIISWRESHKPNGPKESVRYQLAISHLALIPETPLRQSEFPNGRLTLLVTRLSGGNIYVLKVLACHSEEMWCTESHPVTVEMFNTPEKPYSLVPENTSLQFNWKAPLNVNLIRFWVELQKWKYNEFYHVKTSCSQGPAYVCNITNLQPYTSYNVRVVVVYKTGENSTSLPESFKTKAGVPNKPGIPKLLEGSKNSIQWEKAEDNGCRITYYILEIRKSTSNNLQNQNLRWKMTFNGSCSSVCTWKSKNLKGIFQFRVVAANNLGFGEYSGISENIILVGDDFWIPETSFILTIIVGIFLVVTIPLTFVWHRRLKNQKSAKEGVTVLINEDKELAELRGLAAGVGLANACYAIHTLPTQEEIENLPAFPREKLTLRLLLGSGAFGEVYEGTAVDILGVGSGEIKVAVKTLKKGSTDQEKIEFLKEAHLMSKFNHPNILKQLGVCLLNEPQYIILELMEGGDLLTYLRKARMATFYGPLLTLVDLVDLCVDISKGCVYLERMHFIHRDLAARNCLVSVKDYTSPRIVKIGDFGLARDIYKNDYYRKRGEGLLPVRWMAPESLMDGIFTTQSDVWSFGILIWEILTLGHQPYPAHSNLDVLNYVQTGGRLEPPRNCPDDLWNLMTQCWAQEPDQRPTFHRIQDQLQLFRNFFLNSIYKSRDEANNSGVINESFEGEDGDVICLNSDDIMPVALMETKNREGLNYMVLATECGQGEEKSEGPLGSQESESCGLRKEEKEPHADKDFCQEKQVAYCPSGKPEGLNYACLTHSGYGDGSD

CC(C)c1ccc(COc2cc(F)c(-c3c(-c4ccncc4)nn4c3NCC4)cc2F)cc1 [Co. 2]
IC50 [1]: 2.51e-08 M | Ba/F3 Ros1 L2026M (-IL-3) pIC50 [2]: 7.7 | BaF3-ROS1 − IL3 pIC50 [3]: ~8.03 | EC50 [4]: 1.26e-08 M | CC50 [5]: > 1e-05 M | melting point: 153 °C

CC(C)c1ccc(COc2ccc(-c3c(-c4ccncc4)nn4c3NCC4)c(C#N)c2)cc1 [Co. 3]
IC50 [1]: 6.31e-08 M | Ba/F3 Ros1 L2026M (-IL-3) pIC50 [2]: 6.6 | BaF3-ROS1 − IL3 pIC50 [3]: 7.2 | CC50 [5]: > 1e-05 M | melting point: 191 °C

CC(C)c1ccc(COc2ccc(-c3c(-c4ccncc4)nn4c3NCC4)cn2)cc1 [Co. 4]
IC50 [1]: 1e-07 M | Ba/F3 Ros1 L2026M (-IL-3) pIC50 [2]: 7.1 | BaF3-ROS1 − IL3 pIC50 [3]: 7.1 | EC50 [4]: 6.31e-07 M | CC50 [5]: 1.26e-06 M | melting point: 159 °C

CC(C)c1ccc(COc2ccc(-c3c(-c4ccncc4)nn4c3NCC4)cc2)cc1C#N [Co. 6]
IC50 [1]: 2e-07 M | Ba/F3 Ros1 L2026M (-IL-3) pIC50 [2]: 6.4 | BaF3-ROS1 − IL3 pIC50 [3]: 6.7 | CC50 [5]: > 1e-05 M | melting point: 158 °C

CC(C)c1ccc(COc2ccc(-c3c(-c4ccncc4)nn4c3NCC4)cc2)c(F)c1F [Co. 8]
IC50 [1]: 1.58e-06 M | Ba/F3 Ros1 L2026M (-IL-3) pIC50 [2]: 7.5 | BaF3-ROS1 − IL3 pIC50 [3]: 6.3 | EC50 [4]: 2e-06 M | CC50 [5]: 3.98e-06 M | melting point: 149 °C

CC(C)c1ccc(COc2ccc(-c3c(-c4ccncc4)nn4c3NCC4)cc2)cc1CC(O)CO (stereo not shown) [Co. 9]
IC50 [1]: 6.31e-08 M | Ba/F3 Ros1 L2026M (-IL-3) pIC50 [2]: 5.5 | BaF3-ROS1 − IL3 pIC50 [3]: 7.3 | EC50 [4]: 5.01e-07 M | CC50 [5]: > 1e-05 M

CC(C)c1ccc(COc2ccc(-c3c(-c4ccncc4)nn4c3NC(CO)C4)cc2)cc1 (stereo not shown) [Co. 11]
IC50 [1]: 2.51e-07 M | Ba/F3 Ros1 L2026M (-IL-3) pIC50 [2]: 6.8 | BaF3-ROS1 − IL3 pIC50 [3]: 7.0 | EC50 [4]: 7.94e-07 M | CC50 [5]: 2.51e-06 M

CC(C)c1ccc(COc2ccc(-c3c(-c4ccncc4)nn4c3N(CCCN)CC4)cc2)cc1 [Co. 12]
IC50 [1]: 5.01e-07 M | Ba/F3 Ros1 L2026M (-IL-3) pIC50 [2]: 6 | BaF3-ROS1 − IL3 pIC50 [3]: 6.3 | EC50 [4]: 1.58e-06 M | CC50 [5]: ~4.47e-06 M

CC(C)c1ccc(COc2ccc(-c3c(-c4ccncn4)nn4c3NCC4)cc2)cc1 [Co. 14]
IC50 [1]: 3.98e-07 M | Ba/F3 Ros1 L2026M (-IL-3) pIC50 [2]: 6.6 | BaF3-ROS1 − IL3 pIC50 [3]: 6.5 | EC50 [4]: 1e-06 M | CC50 [5]: ~7.41e-06 M | melting point: 109 °C

CC(C)c1ccc(COc2ccc(-c3c(-c4ccncn4)nn4c3NCC4)c(F)c2)cc1 [Co. 15]
IC50 [1]: 2.51e-07 M | Ba/F3 Ros1 L2026M (-IL-3) pIC50 [2]: <5 | BaF3-ROS1 − IL3 pIC50 [3]: 6.8 | EC50 [4]: 6.31e-07 M | CC50 [5]: > 1e-05 M

CC(C)c1ccc(COc2ccc(-c3c(-c4ccncc4)nn4c3NCCC4)c(F)c2)cc1 [Co. 18]
IC50 [1]: 2e-08 M | Ba/F3 Ros1 L2026M (-IL-3) pIC50 [2]: 7.8 | BaF3-ROS1 − IL3 pIC50 [3]: 7.6 | EC50 [4]: 3.98e-07 M | CC50 [5]: > 1e-05 M | melting point: 188 °C

CC(C)c1ccc(COc2ccc(-c3c(-c4ccncc4)nn4c3N(C)CCC4)cc2)cc1 [Co. 19]
IC50 [1]: 1e-07 M | Ba/F3 Ros1 L2026M (-IL-3) pIC50 [2]: 6.4 | BaF3-ROS1 − IL3 pIC50 [3]: 6.7 | EC50 [4]: 7.94e-07 M | CC50 [5]: > 1e-05 M | melting point: 120 °C

CC(C)c1ccc(COc2ccc(-c3c(-c4ccncc4)nn4c3N(CCO)C(=O)CC4)cc2)cc1 [Co. 20]
IC50 [1]: 3.16e-07 M | BaF3-ROS1 − IL3 pIC50 [3]: 6.8 | CC50 [5]: > 1e-05 M | melting point: 205 °C

CC(C)c1ccc(COc2ccc(-c3c(-c4ccncc4)nn4c3N(CCO)CCC4)cc2)cc1 [Co. 21]
IC50 [1]: 6.31e-08 M | Ba/F3 Ros1 L2026M (-IL-3) pIC50 [2]: 6.9 | BaF3-ROS1 − IL3 pIC50 [3]: 7.4 | CC50 [5]: > 1e-05 M | melting point: 147 °C

CC(C)c1ccc(COc2ccc(-c3c(-c4ccncc4)nn4c3N(C)C(=O)CC4)cc2)cc1 [Co. 22]
IC50 [1]: 5.01e-07 M | BaF3-ROS1 − IL3 pIC50 [3]: 6.4 | CC50 [5]: > 1e-05 M | melting point: 160 °C

CC(C)c1ccc(COc2ccc(-c3c(-c4ccncc4)nn4c3NC(CO)CC4)c(F)c2)cc1 (stereo not shown) [Co. 23]
IC50 [1]: 3.16e-08 M | Ba/F3 Ros1 L2026M (-IL-3) pIC50 [2]: 7.8 | BaF3-ROS1 − IL3 pIC50 [3]: 7.9 | EC50 [4]: 1e-07 M | CC50 [5]: > 1e-05 M

CNC(=O)C1CCNc2c(-c3ccc(OCc4ccc(C(C)C)cc4)cc3)c(-c3ccncc3)nn21 (stereo not shown) [Co. 26]
IC50 [1]: 3.16e-08 M | Ba/F3 Ros1 L2026M (-IL-3) pIC50 [2]: 6.7 | BaF3-ROS1 − IL3 pIC50 [3]: 7.1 | EC50 [4]: 1.58e-07 M | CC50 [5]: > 1e-05 M

CNCC1CCNc2c(-c3ccc(OCc4ccc(C(C)C)cc4)cc3)c(-c3ccncc3)nn21 (stereo not shown) [Co. 27]
IC50 [1]: 5.01e-07 M | Ba/F3 Ros1 L2026M (-IL-3) pIC50 [2]: 5.5 | BaF3-ROS1 − IL3 pIC50 [3]: 6.3 | CC50 [5]: ~6.31e-06 M

CC(C)c1ccc(COc2ccc(-c3c(-c4ccncc4)nn4cccnc34)cc2)cc1 [Co. A]
IC50 [1]: 7.94e-08 M | BaF3-ROS1 − IL3 pIC50 [3]: 6.8 | CC50 [5]: > 1e-05 M

CC(C)c1ccc(COc2ccc(-c3c(-c4ccncc4)nn4cccnc34)c(F)c2)cc1 [Co. B]
IC50 [1]: 2.51e-08 M | BaF3-ROS1 − IL3 pIC50 [3]: 7.2 | CC50 [5]: > 1e-05 M | melting point: 187 °C

Cc1ccn2nc(-c3ccncc3)c(-c3ccc(OCc4ccc(C(C)C)cc4)cc3F)c2n1 [Co. C]
IC50 [1]: 3.16e-08 M | Ba/F3 Ros1 L2026M (-IL-3) pIC50 [2]: 7.5 | BaF3-ROS1 − IL3 pIC50 [3]: 7.5 | EC50 [4]: 2e-07 M | CC50 [5]: > 1e-05 M

COC(=O)c1ccn2nc(-c3ccncc3)c(-c3ccc(OCc4ccc(C(C)C)cc4)cc3)c2n1 [Co. G]
IC50 [1]: 1e-06 M | BaF3-ROS1 − IL3 pIC50 [3]: <5 | CC50 [5]: > 1e-05 M

CCOC(=O)c1ccnc2c(-c3ccc(OCc4ccc(C(C)C)cc4)cc3)c(-c3ccncc3)nn12 [Co. H]
IC50 [1]: 5.01e-07 M | BaF3-ROS1 − IL3 pIC50 [3]: 5.8 | CC50 [5]: > 1e-05 M | melting point: 140 °C
